Laboratory results: patent US9999612B2, “PPARs agonist activity enhancing drug” (Tsujimoto Chemical Co., Ltd., priority 2012, dated 2018)

Key:
PPARδ = PPARδ agonist activity, reporter gene assay using COS-1 cells; format: cell-based
Description: (§1) The agonist activities of PPARα, PPARδ and PPARγ, respectively, were visually verified by a reporter gene assaying method using COS-1 cells so as to evaluate them. The evaluation method is as below.
(§2) The COS-1 cells were collected by trypsinization, centrifuged (1000 rpm, 4° C., 3 min.), and then seeded on a 60 mm Petri dish for cultivation in a density of 6×10^5 cells/well. After cultivation at 37° C. under 5% CO2 for 24 hours, cells were transformed using […]® Transfection Reagent (QIAGEN®). EC buffer ([…]), pPPARα-GAL4 (0.25 μg), pPPARδ-GAL4 (0.25 μg) or pPPARγ-GAL4 (0.25 μg), p17M2G (1 μg), pSEAP control vector (1 μg) were put into a 1.5 ml Eppendorf tube, to which 18 μl of Enhancer was added, and stirred by a vortex for 1 second. This was left to stand at room temperature for 3 minutes, to which 25 μl of Effectene was added, stirred by the voltex for 10 seconds, and left to stand at room temperature for 7 minutes. Simultaneously, the medium for transformation in the 60 mm Petri dish for cultivation was removed, to which […] of medium was added to exchange the medium. Seven minutes later, 1 ml of medium was added to the Eppendorf tube, suspended twice, dropped to a 60 mm Petri dish for cultivation, and cultivated 37° C. under 5% CO2 for 16 hours.
(§3) The cells were collected by trypsinization after 16 hours, centrifuged (1000 rpm, 4° C., 3 min.), and then suspended in 6 ml of medium, and seeded on a 96-well plate at 125 μl/well. The sample solution was added at 1.25 μl/well after 2-3 hours, and cultivated 37° C. under 5% CO2 for 24 hours. Then the medium was collected at 25 μl/well, a secreted alkaline phosphatase (SEAP) activity was measured using GREAT ESCAPE™ SEAP (Clontech Laboratories, Inc.) kit. As the outline, 1× dilution buffer was added at 25 μl/well, mildly stirred, sealed with a scotch tape, and incubated at 65° C. for 30 minutes. Subsequently, it was cooled at 4° C., and returned to room temperature, then an assay buffer was added at 90 μl/well. It was left to stand at room temperature for 5 minutes, to which 10 μl of MUP solution was added at 10 μl/well. At room temperature, it was left to stand in a dark room for 1 hour, and then fluorescence intensity based on 4-methylumbelliferyl phosphate (Ex=360 nm, Em=460 nm) was measured.
(§4) Concentrations of the samples to be evaluated are 50 μM and 5 μM.

PPARγ [1] = assay: PPARγ agonist activity, reporter gene assay using COS-1 cells; format: cell-based; details: for PPARγ agonist activity compared with control substance 10 μM Trogliazone: 50 μM
Description: as §1, §2, §3, §4

PPARα [2] = assay: PPARα agonist activity, reporter gene assay using COS-1 cells; format: cell-based; details: for PPARα agonist activity, ratio to WY14643 50 μM (= 1.00): FIG. 1; for difference between PPARα values of the R and S bodies: 25 μM, FIG. 6; for PPARα agonist activity: study of aliphatic chain length of δ-lactones
Description: as §1, §2, §3
(§5) In order to measure the activity for PPARα, luciferase activity measuring cocktail (Invitrogen) was added to other 96 well plate at 100 μl/well to measure the emission intensity. Compensation among each well was performed by dividing the measured value of the luciferase activity by the SEAP activity value.
7 to 9, i.e. C9 to C11 in which the α and β positions in the lactone ring of the raw material are substituted by double bonds, which are the compounds of the present invention. […] The structure of carbon number C8 lacks one side chain in the carbon number C9, and the structure of carbon number C12 adds one side chain to the carbon number C11, in which no double bond is provided. The carbon numbers C9 to C11 represents numbers of the carbon atoms in the compounds of Chemical formulae 4 to 6 and Chemical formulae 7 to 9.

PPARα [3] = target: T1, PPARα (Homo sapiens, UniProt Q07869); assay: Activity test using HepG2 cells: ACS and CPT1A gene expression (PPARα agonist activity); format: cell-based; details: C11 at 50 μM and 25 μM, FIG. 4
T1 construct: endogenous in cells; host or cells: HepG2
T1 sequence (Q07869 1-468): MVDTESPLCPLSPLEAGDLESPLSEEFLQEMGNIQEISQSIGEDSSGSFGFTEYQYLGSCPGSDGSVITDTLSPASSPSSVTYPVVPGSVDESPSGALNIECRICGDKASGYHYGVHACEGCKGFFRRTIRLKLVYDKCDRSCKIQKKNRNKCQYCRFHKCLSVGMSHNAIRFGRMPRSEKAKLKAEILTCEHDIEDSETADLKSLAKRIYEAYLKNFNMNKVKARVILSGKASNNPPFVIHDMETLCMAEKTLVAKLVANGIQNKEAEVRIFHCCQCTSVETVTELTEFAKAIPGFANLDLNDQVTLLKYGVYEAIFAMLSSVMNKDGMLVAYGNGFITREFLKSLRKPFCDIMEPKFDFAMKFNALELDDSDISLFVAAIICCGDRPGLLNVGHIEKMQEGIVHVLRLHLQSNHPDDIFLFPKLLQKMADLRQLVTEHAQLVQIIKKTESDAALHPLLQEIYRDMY
Description: Next, a novel compound C11 was focused, and further activity tests using HepG2 cells were carried out. […] In the figure, GAPDH represents a housekeeping indicator, ACS represents expression of lipid metabolism gene, and CPT1A represents expression of lipolytic gene. As a drug for comparison, Bezafibrate known as PPARα agonist activity enhancer was used with 50 μM dilution, and the compound C11 of the present invention was used at concentrations of 50 μM and 25 μM.

PPARγ [4] = assay: Differentiation induction method using 3T3-L1 cells: fat cell differentiation induction-associated gene expression (Adiponectine); format: cell-based, mouse; details: 25 μM, 12 μM and 6 μM, FIG. 5
Description: Subsequently, an agonist activity test on fat cell differentiation induction-associated genes was similarly carried out for C11, and the results are shown in FIG. 5. In this test, the differentiation induction method using 3T3-L1 cells was conducted. For preparing samples, a plate having a total of 24 depressions of 6 lines×4 rows was used, and a known mouse fat cells was used to observe PPARγ agonist activities. In relation to 5 samples shown in the figure, in order from the right, a sample without insulin administration, a sample dosed with 1.7 μM of insulin, a sample dosed with 25 μM of C11 compound, a sample dosed with 12 μM of C11 compound and a sample dosed with 6 μM of C11 compound are shown. CAPDH is a housekeeping indicator, C/EBPα is a control, and Adiponectine is an expressed gene.

PPARs = PPARs agonist activity, collective evaluation (PPARα, δ and γ); format: cell-based; details: for difference between activities of the R body and the S body, three PPARs: FIG. 6, three tests averaged
Description: as §1, §2
The cells were collected by trypsinization after 16 hours, centrifuged (1000 rpm, 4° C., 3 min.), and then suspended in 6 ml of medium, and seeded on a 96-well plate at 125 μl/well. […] Then the medium was collected at 25 μl/well, a secreted alkaline phosphatase (SEAP) activity was measured using GREAT ESCAPE™ SEAP (Clontech Laboratories, Inc.) kit. […] At room temperature, it was left to stand in a dark room for 1 hour, and then fluorescence intensity based on 4-methylumbelliferyl phosphate (Ex=360 nm, Em=460 nm) was measured.
as §5

[5] = study of aliphatic chain length of δ-lactones

Question: Which results are given for `CCCC1CCCC(=O)O1` (stereo not shown) [C8, 6-propyltetrahydro-2H-pyran-2-one]?
Answer: PPARδ agonist activity (PPARδ; 5 μM, FIG. 2): little activity; PPARγ agonist activity (PPARγ [1]; 5 μM, FIG. 3): little activities; PPARγ agonist activity compared with control substance 10 μM Trogliazone (PPARγ [1]; FIG. 3): considerably lower activities than the values of C9 to C11; PPARα agonist activity, ratio to WY14643 50 μM (= 1.00) (PPARα [2]; 5 μM): can hardly be expected for the activity

Question: How did the “gene expression (ACS, CPT1A) compared with Bezafibrate 50 μM” value (PPARα [3]) turn out when `CCCCCCC1CC=CC(=O)O1` (stereo not shown) [C11, 6-hexyl-5,6-dihydro-2H-pyran-2-one] was run?
Answer: The value was “at least equal to or greater than that of Bezafibrate”.

Question: What about the “activity on fat cell differentiation induction-associated genes (Adiponectine expression)” value (PPARγ [4]) of the same compound?
Answer: The value was “effective activities”.

Question: `CCCCCCCC1CCCC(=O)O1` (stereo not shown) [C12, 6-heptyltetrahydro-2H-pyran-2-one] was tested. Which PPARδ agonist activity (PPARδ; 5 μM, FIG. 2) did it give?
Answer: The PPARδ agonist activity was “little activity”.

Question: And the PPARγ agonist activity (PPARγ [1]; 5 μM, FIG. 3)?
Answer: The PPARγ agonist activity was “little activities”.

Question: And the “PPARγ agonist activity compared with control substance 10 μM Trogliazone” value (PPARγ [1]; FIG. 3)?
Answer: The value was “considerably lower activities than the values of C9 to C11”.

Question: What about the “PPARα agonist activity, ratio to WY14643 50 μM (= 1.00)” value (“PPARα agonist activity, ratio” below) (PPARα [2]; 5 μM) of the same compound?
Answer: Its value is “did not show strong activity”.

Question: And the “PPARα agonist activity, ratio” value (PPARα [2]; 50 μM)?
Answer: Its value is “did not show strong activity”.

Question: How did the “difference between PPARα values of the R and S bodies” value (PPARα [2]) turn out when `CCCCC[C@@H]1CC=CC(=O)O1` [R body, (R)-6-pentyl-5,6-dihydro-2H-pyran-2-one] was run?
Answer: Its value is “significant difference”.

Question: What about the “difference between activities of the R body and the S body, three PPARs” value (PPARs) of the same compound?
Answer: The value was “no significant difference”.

Question: How did the “difference between PPARα values of the R and S bodies” value (PPARα [2]) turn out when `CCCCC[C@H]1CC=CC(=O)O1` [S body, (S)-6-pentyl-5,6-dihydro-2H-pyran-2-one] was run?
Answer: The value was “significant difference”.

Question: What about the “difference between activities of the R body and the S body, three PPARs” value (PPARs) of the same compound?
Answer: The value was “no significant difference”.

Question: For `Cc1cccc(Nc2cc(Cl)nc(SCC(=O)O)n2)c1C` [WY14643], which “PPARα agonist activity, ratio” value (PPARα [2]; 50 μM) is on record?
Answer: The value was 1.00.

Question: Which PPARδ agonist activity (PPARδ; [5]) does the source give for `CCCCCC1CCCC(=O)O1` (stereo not shown) [δ-decanolactone, 6-pentyltetrahydro-2H-pyran-2-one] here?
Answer: Its PPARδ agonist activity is “strong agonist activity”.

Question: What about the PPARγ agonist activity (PPARγ [1]; [5]) of the same compound?
Answer: Its PPARγ agonist activity is “strong agonist activity”.

Question: And the PPARα agonist activity (PPARα [2])?
Answer: The PPARα agonist activity was “strong agonist activity”.

Question: And the “activity of lactone structures (ring size comparison γ, δ, ϵ)” value (PPARs; comparison of γ-, δ- and ϵ-decanolactone)?
Answer: Its value is “relatively strong activity”.

Question: How did the PPARδ agonist activity (PPARδ; [5]) turn out when `CCCCC1CCCC(=O)O1` (stereo not shown) [δ-nonanolactone, 6-butyltetrahydro-2H-pyran-2-one] was run?
Answer: Its PPARδ agonist activity is “strong agonist activity”.

Question: What about the PPARγ agonist activity (PPARγ [1]; [5]) of the same compound?
Answer: The PPARγ agonist activity was “strong agonist activity”.

Question: What about the PPARα agonist activity (PPARα [2]) of the same compound?
Answer: Its PPARα agonist activity is “strong agonist activity”.

Question: How did the PPARδ agonist activity (PPARδ; [5]) turn out when `CCCCCCC1CCCC(=O)O1` (stereo not shown) [δ-undecanolactone, 6-hexyltetrahydro-2H-pyran-2-one] was run?
Answer: The PPARδ agonist activity was “strong agonist activity”.

Question: What about the PPARα agonist activity (PPARα [2]) of the same compound?
Answer: Its PPARα agonist activity is “strong agonist activity”.
